Measured values published in PMC7961048, “Hierarchized phosphotarget binding by the seven human 14-3-3 isoforms” (Nature Communications, 2021).
Like-named read-outs stand apart in the source and are kept apart here. Starred links: 1 amine or outer side, 2 acyl side, 3 side chain; linkers in the order of their positions; H or OH if unused. Non-standard residues stand in square brackets, D forms with d. Residues, ends and D or L forms follow the SMILES beside them. *: point of attachment. X1 = O=C(CCCC[C@@H]1SC[C@@H]2NC(=O)N[C@@H]21)NCCCOCCOCCOCCCN*; pT = C[C@@H](OP(=O)(O)O)[C@H](N)C(=O)O; Suc = O=C(CCC(=O)[*:2])[*:1]

Experiments:
Assay in all cases: biochemical
Format in all cases: binding
14-3-3β = target: T1, 14-3-3β (Homo sapiens, UniProt P31946)
T1 construct: cDNAs encoding other full-length 14-3-3 isoforms β, τ, η, and σ were obtained as codon-optimized; made in house; host or cells: E. coli BL21(DE3)
T1 sequence (P31946 1-246): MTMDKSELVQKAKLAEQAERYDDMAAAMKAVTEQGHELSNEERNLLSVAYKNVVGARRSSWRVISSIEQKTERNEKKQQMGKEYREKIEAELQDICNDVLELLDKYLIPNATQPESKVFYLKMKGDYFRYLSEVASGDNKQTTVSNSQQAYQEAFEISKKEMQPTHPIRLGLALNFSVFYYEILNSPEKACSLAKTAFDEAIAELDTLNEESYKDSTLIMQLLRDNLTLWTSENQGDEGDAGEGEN
Method: (§1) The seven full-length human 14-3-3 isoforms, produced as fusions to a maltose-binding protein (MBP), were analyzed for their interaction with four phospho-PBMs from E6 proteins of HPV types 16, 18, 33, and 35 belonging to subgroups 1 and 2 (as defined in Supplementary Fig. 1). For comparison, we also measured two non-viral phospho-PBMs originating from protein kinase RSK1[28]. We used a competitive fluorescence polarization (FP) assay that measures the displacement of a fluorescent tracer phosphopeptide (here, derived from the HSPB6 protein) bound beforehand to 14-3-3, by an increasing amount of the peptide of interest.
(§2) For affinity measurements, full-length human 14-3-3 constructs with an N-terminal MBP fusion were used. Plasmids containing the cDNAs of the full-length 14-3-3 isoforms ε, γ, and ζ were received from Prof. Lawrence Banks. cDNAs encoding other full-length 14-3-3 isoforms β, τ, η, and σ were obtained as codon-optimized for E. coli expression synthetic genes from IDT Technologies (Coralville, Iowa, USA). All 14-3-3 isoforms were fused via a three-alanine linker to the C terminus of a mutant MBP carrying the following amino acid substitutions facilitating crystallization: D83A, K84A, K240A, E360A, K363A, and D364A[62]. All resulting clones were verified by sequencing. The MBP-fused proteins were expressed in E. coli BL21(DE3) with IPTG induction. Proteins were affinity purified on an amylose column and were further purified by ion-exchange chromatography (HiTrap Q HP, GE Healthcare). Unfused 14-3-3 isoforms devoid of the flexible C-terminal tails (14-3-3βΔC, 14-3-3τΔC 14-3-3εΔC) were expressed using IPTG induction and purified by subtractive IMAC and SEC[40]. Protein concentrations were determined by UV spectroscopy. The samples were supplemented with glycerol and TCEP before aliquoting and freezing in liquid nitrogen.
(§3) Unless otherwise stated, all phosphopeptide-binding measurements were performed using full-length 14-3-3 proteins fused to the C terminus of MBP, favoring optimal solubility and a standardized parallel purification scheme.
(§4) FP was measured with a PHERAstar (BMG Labtech, Offenburg, Germany) microplate reader by using 485 ± 20 and 528 ± 20 nm band-pass filters (for excitation and emission, respectively). In direct FP measurements, a dilution series of the 14-3-3 protein was prepared in 96-well plates (96-well skirted PCR plate, 4ti-0740, 4titude, Wotton, UK) in a 20 mM HEPES pH 7.5 buffer containing 150 mM NaCl, 0.5 mM TCEP, 0.01% Tween 20, 50 nM fluorescently labeled fpB6 peptide, and 100 μM FSC, if indicated. The volume of the dilution series was 40 μl, which was later divided into three technical replicates of 10 μl upon transferring to 384-well micro-plates (low binding microplate, 384 well, E18063G5, Greiner Bio-One, Kremsmünster, Austria). In total, polarization of the probe was measured at eight different protein concentrations (whereas one contained no protein and corresponded to the free peptide). In competitive FP measurements, the same buffer was supplemented with the protein to achieve a complex formation of 60–80%, based on the direct titration. Then, this mixture was used for creating a dilution series of the unlabeled competitor (i.e., the studied peptides) and the measurement was carried out identically as in the direct experiment.
(§5) All FP experiments were done in triplicates. Analysis of FP experiments were carried out using ProFit, an in-house developed, Python-based fitting program. ProFit utilizes a Monte Carlo approach to take into account experimental variability. It generates hundreds of simulated datasets, based on the experimental data variance and fits direct and competitive measurements in pairs.

14-3-3γ = target: T2, 14-3-3γ (Homo sapiens, UniProt P61981)
T2 construct: full-length human 14-3-3 constructs with an N-terminal MBP fusion were used; made in house; host or cells: E. coli BL21(DE3)
T2 sequence (P61981 1-247): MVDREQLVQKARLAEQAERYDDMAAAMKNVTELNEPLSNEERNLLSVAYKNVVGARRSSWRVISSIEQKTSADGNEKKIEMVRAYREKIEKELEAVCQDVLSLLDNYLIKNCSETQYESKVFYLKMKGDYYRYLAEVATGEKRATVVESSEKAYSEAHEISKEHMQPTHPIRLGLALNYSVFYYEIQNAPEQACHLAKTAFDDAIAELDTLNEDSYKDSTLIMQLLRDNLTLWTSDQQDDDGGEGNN
Method: as §1, §2, §3, §4, §5

14-3-3σ = target: T3, 14-3-3σ (Homo sapiens, UniProt P31947)
T3 construct: cDNAs encoding other full-length 14-3-3 isoforms β, τ, η, and σ were obtained as codon-optimized; made in house; host or cells: E. coli BL21(DE3)
T3 sequence (P31947 1-248): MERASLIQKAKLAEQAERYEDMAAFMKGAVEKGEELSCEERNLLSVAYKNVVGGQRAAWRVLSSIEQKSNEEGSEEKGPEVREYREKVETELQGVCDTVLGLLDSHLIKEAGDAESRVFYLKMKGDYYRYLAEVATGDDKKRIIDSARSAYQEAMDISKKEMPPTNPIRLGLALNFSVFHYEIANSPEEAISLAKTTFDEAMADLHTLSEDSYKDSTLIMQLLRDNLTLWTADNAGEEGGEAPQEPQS
Method: as §1, §2, §3, §4, §5

14-3-3τ = target: T4, 14-3-3τ (Homo sapiens, UniProt P27348)
T4 construct: cDNAs encoding other full-length 14-3-3 isoforms β, τ, η, and σ were obtained as codon-optimized; made in house; host or cells: E. coli BL21(DE3)
T4 sequence (P27348 1-245): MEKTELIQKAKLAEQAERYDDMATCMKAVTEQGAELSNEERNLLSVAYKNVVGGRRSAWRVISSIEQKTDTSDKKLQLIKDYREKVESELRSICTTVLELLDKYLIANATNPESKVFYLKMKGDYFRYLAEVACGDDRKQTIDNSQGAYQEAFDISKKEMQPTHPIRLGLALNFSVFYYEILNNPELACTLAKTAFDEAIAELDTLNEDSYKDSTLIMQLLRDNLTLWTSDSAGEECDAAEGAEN
Method: as §1, §2, §3, §4, §5

[1] = Figure 4 panel a, unit from the colour scale line, motifs measured in this work

| SMILES | Kd (14-3-3β) [µM] | Kd (14-3-3γ) [µM] | Kd (14-3-3σ) [µM] | Binding affinities (KD) of various 14-3-3-binding motifs, 14-3-3σ (14-3-3σ; [1]) | Kd (14-3-3τ) [µM] | Binding affinities (KD) of various 14-3-3-binding motifs, 14-3-3τ (14-3-3τ; [1]) [µM] | Kd (14-3-3γ; Binding affinities (KD) of various 14-3-3-binding motifs, 14-3-3γ) [µM] | Kd (14-3-3γ; KD (μM) ± std 14-3-3γ) [µM] | Binding affinities (KD) of various 14-3-3-binding motifs, 14-3-3β (14-3-3β) | Binding affinities (KD) of various 14-3-3-binding motifs, 14-3-3σ (14-3-3σ) |
| --- | --- | --- | --- | --- | --- | --- | --- | --- | --- | --- |
| CC(C)C[C@H](NC(=O)[C@H](CCC(N)=O)NC(=O)[C@@H](NC(=O)[C@H](CCC(=O)O)NC(=O)[C@H](CCCNC(=N)N)NC(=O)[C@H](CCCNC(=N)N)NC(=O)[C@@H](NC(=O)[C@H](CCCNC(=N)N)NC(=O)[C@H](CO)NC(=O)[C@H](CO)NC(=O)CCC(=O)NCCCOCCOCCOCCCNC(=O)CCCC[C@@H]1SC[C@@H]2NC(=O)N[C@@H]21)[C@@H](C)O)[C@@H](C)OP(=O)(O)O)C(=O)O [pHPV16E6] | 159 ± 45 | 37.2 ± 3 | > 300 | √ | 144 ± 28 | 144 |  |  |  |  |
| CC(C)C[C@H](NC(=O)[C@H](CCCNC(=N)N)NC(=O)CCC(=O)NCCCOCCOCCOCCCNC(=O)CCCC[C@@H]1SC[C@@H]2NC(=O)N[C@@H]21)C(=O)N[C@@H](CCC(N)=O)C(=O)N[C@@H](CCCNC(=N)N)C(=O)N[C@@H](CCCNC(=N)N)C(=O)N[C@@H](CCCNC(=N)N)C(=O)N[C@@H](CCC(=O)O)C(=O)N[C@H](C(=O)N[C@@H](CCC(N)=O)C(=O)N[C@H](C(=O)O)C(C)C)[C@@H](C)OP(=O)(O)O [pHPV18E6] | 42.2 ± 6.3 | 11.1 ± 0.6 | 139 ± 24 |  | 37.8 ± 6 |  |  |  |  |  |
| CC(C)C[C@H](NC(=O)[C@H](C)NC(=O)[C@@H](NC(=O)[C@H](CCC(=O)O)NC(=O)[C@H](CCCNC(=N)N)NC(=O)[C@H](CCCNC(=N)N)NC(=O)[C@H](CCCNC(=N)N)NC(=O)[C@H](CO)NC(=O)[C@H](CCCNC(=N)N)NC(=O)[C@H](CO)NC(=O)CCC(=O)NCCCOCCOCCOCCCNC(=O)CCCC[C@@H]1SC[C@@H]2NC(=O)N[C@@H]21)[C@@H](C)OP(=O)(O)O)C(=O)O [pHPV33E6] ({X1-Suc}-SRSRRRE[pT]AL-OH) | 4.05 |  | 6.77 |  | 3.52 |  | 0.94 | < 1 |  |  |
| CC(C)[C@H](NC(=O)[C@H](C)NC(=O)[C@@H](NC(=O)[C@H](CCC(=O)O)NC(=O)[C@H](CCCNC(=N)N)NC(=O)[C@H](CCCNC(=N)N)NC(=O)[C@@H](NC(=O)[C@@H]1CCCN1C(=O)[C@H](CCCCN)NC(=O)[C@H](CO)NC(=O)CCC(=O)NCCCOCCOCCOCCCNC(=O)CCCC[C@@H]1SC[C@@H]2NC(=O)N[C@@H]21)[C@@H](C)O)[C@@H](C)OP(=O)(O)O)C(=O)O [pHPV35E6E-1A] ({X1-Suc}-SKPTRRE[pT]AV-OH) | 20.2 | 9.31 | 44.1 |  | 21.5 |  |  |  |  |  |
| CC(C)[C@H](NC(=O)[C@H](CCC(=O)O)NC(=O)[C@@H](NC(=O)[C@H](CCC(=O)O)NC(=O)[C@H](CCCNC(=N)N)NC(=O)[C@H](CCCNC(=N)N)NC(=O)[C@H](CCCNC(=N)N)NC(=O)[C@@H]1CCCN1C(=O)[C@H](CCCCN)NC(=O)[C@H](CO)NC(=O)CCC(=O)NCCCOCCOCCOCCCNC(=O)CCCC[C@@H]1SC[C@@H]2NC(=O)N[C@@H]21)[C@@H](C)OP(=O)(O)O)C(=O)O [pHPV35E6T-6R] ({X1-Suc}-SKPRRRE[pT]EV-OH) | 179 ± 29 | 71.2 ± 6.7 | > 300 | √ | 194 ± 37 |  |  |  |  |  |
| CC(C)[C@H](NC(=O)[C@H](CCC(=O)O)NC(=O)[C@@H](NC(=O)[C@H](CCC(=O)O)NC(=O)[C@H](CCCNC(=N)N)NC(=O)[C@H](CCCNC(=N)N)NC(=O)[C@@H](NC(=O)[C@@H]1CCCN1C(=O)[C@H](CCCCN)NC(=O)[C@H](CO)NC(=O)CCC(=O)NCCCOCCOCCOCCCNC(=O)CCCC[C@@H]1SC[C@@H]2NC(=O)N[C@@H]21)[C@@H](C)O)[C@@H](C)OP(=O)(O)O)C(=O)O [pHPV35E6] ({X1-Suc}-SKPTRRE[pT]EV-OH) | > 300 |  | > 300 |  | 233 ± 14 |  |  | 125 ± 6 | √ | √ |
